Patent US5041567A, “Antibacterial monic acid derivatives” (Beecham Group plc, priority 1982, dated 1991)
Values after ≈ are worked out from the molar mass of the structure shown. Like-named read-outs stand apart in the source and are kept apart here.

Tests used:
[1] = system: Pasteurella multocida 1633; test: MIC against human bacteria in vitro; type: cell-based; conditions: Pasteurella multocida 1633, 5% chocolated horse blood agar, 18 hours
S. dublin S7 = test: MIC against veterinary bacteria in vitro
Description: (§1) The activity of the compounds of the Examples against various veterinarily important bacteria, was assayed in vitro using two-fold serial dilutions in Diagnostic Sensitivity Test Agar inoculated with 10^4 organisms.

M. suipneumoniae JF 435 = test: MIC against mycoplasma in vitro; type: cell-based; conditions: M. suipneumoniae JF 435, 6 days, 37° C.
E. coli NCTC 10418 [2] = test: MIC against veterinary bacteria in vitro
Description: as §1

Staph. aureus Oxford [3] = test: MIC against human bacteria in vitro; type: cell-based; conditions: Staph. aureus Oxford, 5% chocolated horse blood agar, 18 hours
E. coli NCTC 10418 [4] = test: MIC against human bacteria in vitro; type: cell-based
S. typhimurium S18 = test: MIC against veterinary bacteria in vitro
Description: as §1

M. suipneumoniae Str. 11 = test: MIC against mycoplasma in vitro; type: cell-based
Staph. aureus Oxford [5] = test: MIC against veterinary bacteria in vitro
Description: as §1

Strep. uberis SPU1 = test: MIC against veterinary bacteria in vitro
Description: as §1

[6] = system: M. suipneumoniae NCTC 10110; test: MIC against mycoplasma in vitro; type: cell-based; conditions: M. suipneumoniae NCTC 10110, 6 days, 37° C.
Bacillus subtilis 6633 = test: MIC against human bacteria in vitro; type: cell-based; conditions: Bacillus subtilis 6633, 5% chocolated horse blood agar, 18 hours
E. coli ESS = test: MIC against human bacteria in vitro; type: cell-based
[7] = system: M. suipneumoniae PW/C/210; test: MIC against mycoplasma in vitro; type: cell-based; conditions: Mesomycoplasma hyopneumoniae, 144 h
[8] = system: Staph. aureus 152 (pen. sens); test: MIC against veterinary bacteria in vitro
Description: as §1

B. subtilis ATCC 6633 = test: MIC against veterinary bacteria in vitro
Description: as §1

[9] = system: Strep. pyogenes R80/421-A; test: MIC against human bacteria in vitro; type: cell-based; conditions: Strep. pyogenes R80/421-A, 5% chocolated horse blood agar, 18 hours
M. gallisepticum S6 = test: MIC against mycoplasma in vitro; type: cell-based
M. dispar NCTC 10125 = test: MIC against mycoplasma in vitro; type: cell-based
Strep. spp. 64/848-C = test: MIC against human bacteria in vitro; type: cell-based; conditions: Strep. spp. 64/848-C, 5% chocolated horse blood agar, 18 hours
Strep. agalactiae SPA1 = test: MIC against veterinary bacteria in vitro
Description: as §1

E. coli E1 = test: MIC against veterinary bacteria in vitro
Description: as §1

M. pneumoniae ATCC 15492 = test: MIC against mycoplasma in vitro; type: cell-based
[10] = system: Haemophilus influenzae Q1; test: MIC against human bacteria in vitro; type: cell-based; conditions: Haemophilus influenzae Q1; 5% chocolated horse blood agar, 18 hours; read-out: MIC
[11] = Mesomycoplasma hyopneumoniae, JF435, 144 h, read-out: MIC
[12] = Escherichia coli, NCTC10418, 18 h
[13] = Staphylococcus aureus, read-out: MIC
[14] = Salmonella enterica, TYPHIMURIUM, 18 h
[15] = Streptococcus uberis, SPU1, 18 h
[16] = Mesomycoplasma hyopneumoniae, NCTC10110, 144 h, read-out: MIC
[17] = Escherichia coli, E. coli ESS, 5% chocolated horse blood agar, 18 hours, read-out: MIC
[18] = Streptococcus pyogenes, read-out: MIC
[19] = Streptococcus agalactiae, SPA1, 18 h
[20] = Mesomycoplasma hyopneumoniae, 144 h, M. suipneumoniae Str. 11, 6 days, 37° C., read-out: MIC
[21] = M. suipneumoniae PW/C/210, 6 days, 37° C., read-out: MIC
[22] = Mycoplasmoides gallisepticum, 144 h, M. gallisepticum S6, 6 days, 37° C., read-out: MIC
[23] = Mycoplasmoides pneumoniae, ATCC15492, 144 h, M. pneumoniae ATCC 15492, 6 days, 37° C., read-out: MIC

C/C(=C\c1ncc(-c2ccc(C#N)cc2)o1)C[C@@H]1OC[C@H](C[C@@H]2O[C@H]2[C@@H](C)[C@H](C)O)[C@@H](O)[C@H]1O [Example 21, 5-p-Cyanophenyl-2-(1-normon-2-yl) oxazole A]
MIC ([1]; read-out: MIC): 8 µg/mL (≈ 17.1 µM)
MIC (S. dublin S7; Salmonella enterica, S7, 18 h): > 80 µg/mL
MIC (M. suipneumoniae JF 435; [11]): 0.5 µg/mL (≈ 1.07 µM)
MIC (E. coli NCTC 10418 [2]; [12]): > 80 µg/mL
MIC (Staph. aureus Oxford [3]; [13]): 4 µg/mL (≈ 8.54 µM)
MIC (E. coli NCTC 10418 [4]; Escherichia coli, NCTC10418, E. coli NCTC 10418, agar with 5% chocolated horse blood, 18 hours, 37° C., read-out: MIC): > 128 µg/mL
MIC (S. typhimurium S18; [14]): > 80 µg/mL
MIC (M. suipneumoniae Str. 11; Mesomycoplasma hyopneumoniae, STR.11, 144 h): 0.25 µg/mL (≈ 0.534 µM)
MIC (Staph. aureus Oxford [5]; Staphylococcus aureus, 18 h): 2.5 µg/mL (≈ 5.34 µM)
MIC (Strep. uberis SPU1; [15]): 0.156 µg/mL (≈ 0.333 µM)
MIC [6, 16]: 0.5 µg/mL (≈ 1.07 µM)
MIC (Bacillus subtilis 6633; read-out: MIC): 1 µg/mL (≈ 2.13 µM)
MIC (E. coli ESS; [17]): 4 µg/mL (≈ 8.54 µM)
MIC [7]: 0.25 µg/mL (≈ 0.534 µM)
MIC ([8]; Staphylococcus aureus, 18 h): 0.625 µg/mL (≈ 1.33 µM)
MIC (B. subtilis ATCC 6633; Bacillus subtilis, ATCC6633, 18 h): 2.5 µg/mL (≈ 5.34 µM)
MIC [9, 18]: 1 µg/mL (≈ 2.13 µM)
MIC (M. gallisepticum S6; Mycoplasmoides gallisepticum, S6, 144 h): 0.25 µg/mL (≈ 0.534 µM)
MIC (M. dispar NCTC 10125; 144 h): 0.1 µg/mL (≈ 0.213 µM)
MIC (Strep. spp. 64/848-C; read-out: MIC): 4 µg/mL (≈ 8.54 µM)
MIC (Strep. agalactiae SPA1; [19]): 1.25 µg/mL (≈ 2.67 µM)
MIC (E. coli E1; Escherichia coli, E1, 18 h): > 80 µg/mL
MIC (M. pneumoniae ATCC 15492; Mycoplasmoides pneumoniae, ATCC15492, 144 h): 0.25 µg/mL (≈ 0.534 µM)

C/C(=C\c1ncc(-c2ccccc2)s1)C[C@@H]1OC[C@H](C[C@@H]2O[C@H]2[C@@H](C)[C@H](C)O)[C@@H](O)[C@H]1O [Example 29, 2-(1-Normon-2-yl)-5-phenylthiazole A]
MIC ([1]; read-out: MIC): > 100 µg/mL
MIC (S. dublin S7; Salmonella enterica, S7, 18 h): > 80 µg/mL
MIC (M. suipneumoniae JF 435; [11]): > 10 µg/mL
MIC (E. coli NCTC 10418 [2]; [12]): > 80 µg/mL
MIC (Staph. aureus Oxford [3]; [13]): 25 µg/mL (≈ 54.4 µM)
MIC (E. coli NCTC 10418 [4]; [12]): > 100 µg/mL
MIC (S. typhimurium S18; [14]): > 80 µg/mL
MIC (M. suipneumoniae Str. 11; [20]): 10 µg/mL (≈ 21.8 µM)
MIC (Staph. aureus Oxford [5]; Staphylococcus aureus, 18 h): 10 µg/mL (≈ 21.8 µM)
MIC (Strep. uberis SPU1; [15]): 5 µg/mL (≈ 10.9 µM)
MIC [6, 16]: > 10 µg/mL
MIC (Bacillus subtilis 6633; read-out: MIC): 50 µg/mL (≈ 109 µM)
MIC (E. coli ESS; Escherichia coli, 18 h): > 100 µg/mL
MIC [7, 21]: 10 µg/mL (≈ 21.8 µM)
MIC ([8]; Staphylococcus aureus, 18 h): 10 µg/mL (≈ 21.8 µM)
MIC [9, 18]: 50 µg/mL (≈ 109 µM)
MIC (M. gallisepticum S6; [22]): > 10 µg/mL
MIC (M. dispar NCTC 10125; 144 h): 2.5 µg/mL (≈ 5.44 µM)
MIC (Strep. spp. 64/848-C; read-out: MIC): 25 µg/mL (≈ 54.4 µM)
MIC (Strep. agalactiae SPA1; [19]): 40 µg/mL (≈ 87 µM)
MIC (E. coli E1; Escherichia coli, E1, 18 h): > 80 µg/mL
MIC (M. pneumoniae ATCC 15492; [23]): > 10 µg/mL
MIC [10]: 50 µg/mL (≈ 109 µM)

CC(=Cc1cnc(-c2ccccc2)o1)CC1OCC(CC2OC2C(C)C(C)O)C(O)C1O (stereo not shown) [Example 35, 5-(1-Normon-2-yl)-2-phenyloxazole A]
MIC [1]: > 128 µg/mL
MIC (S. dublin S7; S. dublin S7, Diagnostic Sensitivity Test Agar, 18 hours): > 80 µg/mL
MIC (M. suipneumoniae JF 435): > 10 µg/mL
MIC (E. coli NCTC 10418 [2]; E. coli NCTC 10418, Diagnostic Sensitivity Test Agar, 18 hours, 37° C.): > 80 µg/mL
MIC (Staph. aureus Oxford [3]): > 128 µg/mL
MIC (E. coli NCTC 10418 [4]; E. coli NCTC 10418, agar with 5% chocolated horse blood, 18 hours, 37° C.): > 128 µg/mL
MIC (S. typhimurium S18; S. typhimurium S18, Diagnostic Sensitivity Test Agar, 18 hours): > 80 µg/mL
MIC (M. suipneumoniae Str. 11; M. suipneumoniae Str. 11, 6 days, 37° C.): > 10 µg/mL
MIC (Staph. aureus Oxford [5]; Staph. aureus Oxford, Diagnostic Sensitivity Test Agar, 18 hours): > 80 µg/mL
MIC (Strep. uberis SPU1; Strep. uberis SPU1, Diagnostic Sensitivity Test Agar, 18 hours): 80 µg/mL (≈ 180 µM)
MIC [6]: > 10 µg/mL
MIC (Bacillus subtilis 6633): > 128 µg/mL
MIC (E. coli ESS; E. coli ESS, 5% chocolated horse blood agar, 18 hours): 128 µg/mL (≈ 289 µM)
MIC ([8]; Staph. aureus 152 (pen. sens), Diagnostic Sensitivity Test Agar, 18 hours): > 80 µg/mL
MIC (B. subtilis ATCC 6633; B. subtilis ATCC 6633, Diagnostic Sensitivity Test Agar, 18 hours): > 80 µg/mL
MIC [9]: > 128 µg/mL
MIC (M. gallisepticum S6; M. gallisepticum S6, 6 days, 37° C.): > 10 µg/mL
MIC (M. dispar NCTC 10125; M. dispar NCTC 10125, 6 days, 37° C.): > 10 µg/mL
MIC (Strep. spp. 64/848-C): > 128 µg/mL
MIC (Strep. agalactiae SPA1; Strep. agalactiae SPA1, Diagnostic Sensitivity Test Agar, 18 hours): > 80 µg/mL
MIC (E. coli E1; E. coli E1, Diagnostic Sensitivity Test Agar, 18 hours, 37° C.): > 80 µg/mL
MIC (M. pneumoniae ATCC 15492; M. pneumoniae ATCC 15492, 6 days, 37° C.): > 10 µg/mL

C/C(=C\c1nc(-c2ccccc2)c(-c2ccccc2)o1)C[C@@H]1OC[C@H](C[C@@H]2O[C@H]2[C@@H](C)[C@H](C)O)[C@@H](O)[C@H]1O [Example 41, 4,5-Diphenyl-2-(1-normon-2-yl)oxazole A]
MIC ([1]; read-out: MIC): 25 µg/mL (≈ 48.1 µM)
MIC (S. dublin S7; Salmonella enterica, S7, 18 h): > 80 µg/mL
MIC (M. suipneumoniae JF 435; [11]): > 10 µg/mL
MIC (E. coli NCTC 10418 [2]; [12]): > 80 µg/mL
MIC (Staph. aureus Oxford [3]; [13]): 100 µg/mL (≈ 192 µM)
MIC (E. coli NCTC 10418 [4]; [12]): > 100 µg/mL
MIC (S. typhimurium S18; [14]): > 80 µg/mL
MIC (M. suipneumoniae Str. 11; [20]): > 10 µg/mL
MIC (Staph. aureus Oxford [5]; Staphylococcus aureus, 18 h): 40 µg/mL (≈ 77 µM)
MIC (Strep. uberis SPU1; [15]): 10 µg/mL (≈ 19.2 µM)
MIC [6, 16]: > 10 µg/mL
MIC (Bacillus subtilis 6633; read-out: MIC): 100 µg/mL (≈ 192 µM)
MIC (E. coli ESS; [17]): 50 µg/mL (≈ 96.2 µM)
MIC [7, 21]: > 10 µg/mL
MIC ([8]; Staphylococcus aureus, 18 h): 40 µg/mL (≈ 77 µM)
MIC [9, 18]: > 100 µg/mL
MIC (M. gallisepticum S6; [22]): > 10 µg/mL
MIC (M. dispar NCTC 10125; 144 h, M. dispar NCTC 10125, 6 days, 37° C., read-out: MIC): > 10 µg/mL
MIC (Strep. spp. 64/848-C; read-out: MIC): 100 µg/mL (≈ 192 µM)
MIC (Strep. agalactiae SPA1; [19]): 40 µg/mL (≈ 77 µM)
MIC (E. coli E1; Escherichia coli, E1, 18 h): > 80 µg/mL
MIC (M. pneumoniae ATCC 15492; [23]): > 10 µg/mL
MIC [10]: 10 µg/mL (≈ 19.2 µM)
